Like-named read-outs stand apart in the source and are kept apart here.
Assays:
[1] = target: purified human recombinant ATM (ataxia telangiectasia mutated), full length (Homo sapiens (Human), UniProt Q13315); assay: ATM kinase assay - determination of ATM inhibition (IC50 ATM), TR-FRET; format: biochemical
Summary of the method: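 Full-length enzyme, expressed in a mammalian cell line, pre-incubated 15 min with inhibitor in 25 mM HEPES pH 8.0, 10 mM Mg(CH3COO)2, 1 mM MnCl2, 0,1% BSA, 0,01% Brij 35, 5 mM DTT. Full-length cmyc-p53 (Sf21-expressed) and ATP then added, 30-35 min at 22° C. EDTA stop; p53 S15 phosphorylation read by TR-FRET antibodies.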

[2] = test system: phosphorylation of CHK2 (phospho-Thr68) in HCT116 cells; assay: Cellular pCHK2 assay: bleomycin-induced phosphorylation of CHK2 (phospho-Thr68), immunofluorescence high-content analysis; format: cell-based, human; settings: Homo sapiens, HCT-116, 4 h, read-out: IC50 (pCHK2)
Summary of the method: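 HCT116 cells in DMEM with 10% FCS, incubated overnight at 37° C, then given compounds (1 nM to 30 μM, 0.5% DMSO) together with 10 μM bleomycin. Phospho-Thr68 CHK2 immunostained and imaged by high-content imager; nuclei with pCHK2 above background counted, cell count from propidium iodide DNA stain.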

[3] = target: mTOR (human) (Homo sapiens (Human), UniProt P42345); assay: mTOR (human) kinase assay, [γ-33P-ATP] filter assay; format: biochemical
Procedure: Furthermore, the effect, in particular inhibition, of other kinases and thus the selectivity of the compounds according to the invention can be determined with the aid of the following assay:
mTOR (human) was incubated with 50 mM HEPES pH 7.5, 1 mM EGTA, 0.01% Tween 20, 2 mg/ml of the substrate, 3 mM MnCl2 and [γ-^33P-ATP] (specific activity approximately 500 cpm/pmol, concentration as necessary). The reaction was initiated by addition of MgATP solution. After incubation at room temperature for 40 minutes, the reaction was stopped by addition of 3% phosphoric acid. 10 μl of the reaction solution were then transferred dropwise onto a P30 filtermat and washed three times for 5 min in 75 mM phosphoric acid and once in methanol, dried and evaluated by means of liquid scintillation counting.

[4] = target: PI3K p110α/p85α (human) (Homo sapiens (Human), UniProt P42336); assay: PI3K p110α/p85α (human), non-radioactive assay (HTRF); format: biochemical; settings: read-out: IC50 (PI3Kalpha)
Procedure: PI3K p110α/p85α (Human), Non-radioactive Assay
(§1) PI3K p110α/p85α (human) was incubated in an assay buffer comprising 10 μM phosphati-dylinositol 4,5-bisphosphate and MgATP (concentration as necessary). The reaction was initiated by addition of MgATP solution. After incubation at room temperature for 40 minutes, the reaction was stopped by addition of a solution consisting of EDTA and biotinylated phosphatidylinositol 3,4,5-trisphosphate. Finally, the detection buffer, consisting of a europium-labelled anti-GST monoclonal antibody, a GST-labelled GRP1 PH domain and streptavidin allophycocyanin, was added. The plate was read out via homogeneous time-resolved fluorescence (HTRF) and the corresponding signals were evaluated via the formula HTRF=10000×(Em665nm/Em620nm).

[5] = target: PI3K p110β/p85α (human) (Homo sapiens (Human), UniProt P42338); assay: PI3K p110β/p85α (human), non-radioactive assay (HTRF); format: biochemical; settings: for IC50: read-out: IC50 (PI3Kbeta)
Procedure: PI3K p110β/p85α (Human), Non-radioactive Assay
as §1, with “p110β/p85α” for “p110α/p85α”, “After an” for “After”, “incubation time of 30 min” for “incubation”, “temperature,” for “temperature for 40 minutes,”

[6] = target: PI3K p110δ/p85α (human) (Homo sapiens (Human), UniProt O00329); assay: PI3K p110δ/p85α (human), non-radioactive assay (HTRF); format: biochemical; settings: for IC50: read-out: IC50 (PI3Kdelta)
Procedure: PI3K p110δ/p85α (Human), Non-radioactive Assay
as §1, with “p110δ/p85α” for “p110α/p85α”, “After an” for “After”, “incubation time of 30 min” for “incubation”, “temperature,” for “temperature for 40 minutes,”

[7] = target: PI3K (p120γ) (human) (Homo sapiens (Human), UniProt P48736); assay: PI3K (p120γ) (human), non-radioactive assay (HTRF); format: biochemical; settings: for IC50: read-out: IC50 (PI3Kgamma)
Procedure: PI3K (p120γ) (Human), Non-radioactive Assay
as §1, with “(p120γ)” for “p110α/p85α”, “After an” for “After”, “incubation time of 30 min” for “incubation”, “temperature,” for “temperature for 40 minutes,”, “HTRF=10000×(Em665nm/Em620nm). • MgATP=magnesium 5′-O—[hydroxy({[(hydroxyphosphinato)oxy]phosphinato}oxy)phosphoryl]adenosine • MgCl2=magnesium dichloride • EGTA=ethylene glycol bis(aminoethyl ether) N,N,N′,N′-tetraacetic acid • Tween 20=polysorbate 20 Medicament/pharmaceutical Composition” for “HTRF=10000×(Em665nm/Em620nm).”

PI3K p110α/p85α (human), sequence (P42336 whole entry): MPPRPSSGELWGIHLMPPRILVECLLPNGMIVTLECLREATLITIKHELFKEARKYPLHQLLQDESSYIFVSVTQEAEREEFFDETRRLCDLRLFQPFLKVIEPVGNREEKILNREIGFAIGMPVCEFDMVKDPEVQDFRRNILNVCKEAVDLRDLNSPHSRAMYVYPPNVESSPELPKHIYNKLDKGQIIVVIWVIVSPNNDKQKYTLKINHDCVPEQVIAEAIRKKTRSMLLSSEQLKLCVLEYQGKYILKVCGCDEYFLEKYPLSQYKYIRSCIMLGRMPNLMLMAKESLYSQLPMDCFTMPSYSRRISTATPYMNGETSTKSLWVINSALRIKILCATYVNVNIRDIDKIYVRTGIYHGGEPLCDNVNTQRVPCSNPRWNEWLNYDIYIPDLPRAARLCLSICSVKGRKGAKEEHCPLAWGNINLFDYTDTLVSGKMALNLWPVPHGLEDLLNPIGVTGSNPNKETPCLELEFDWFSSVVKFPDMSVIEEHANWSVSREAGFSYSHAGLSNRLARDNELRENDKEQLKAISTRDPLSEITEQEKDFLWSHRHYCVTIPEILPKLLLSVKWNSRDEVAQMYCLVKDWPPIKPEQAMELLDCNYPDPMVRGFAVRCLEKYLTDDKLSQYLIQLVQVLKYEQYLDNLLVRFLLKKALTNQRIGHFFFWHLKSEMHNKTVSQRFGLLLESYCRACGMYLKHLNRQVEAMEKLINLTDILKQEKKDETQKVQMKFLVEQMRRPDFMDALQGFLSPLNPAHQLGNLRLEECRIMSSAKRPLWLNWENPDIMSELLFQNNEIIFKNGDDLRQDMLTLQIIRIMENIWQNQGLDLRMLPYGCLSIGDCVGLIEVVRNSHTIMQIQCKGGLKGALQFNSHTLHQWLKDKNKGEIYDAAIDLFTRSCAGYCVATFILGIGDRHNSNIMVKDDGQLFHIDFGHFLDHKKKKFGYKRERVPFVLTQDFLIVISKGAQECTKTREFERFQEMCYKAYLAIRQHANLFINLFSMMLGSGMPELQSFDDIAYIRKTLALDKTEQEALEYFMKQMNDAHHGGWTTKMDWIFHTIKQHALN
PI3K p110α/p85α (human), sequence (P27986 whole entry partner): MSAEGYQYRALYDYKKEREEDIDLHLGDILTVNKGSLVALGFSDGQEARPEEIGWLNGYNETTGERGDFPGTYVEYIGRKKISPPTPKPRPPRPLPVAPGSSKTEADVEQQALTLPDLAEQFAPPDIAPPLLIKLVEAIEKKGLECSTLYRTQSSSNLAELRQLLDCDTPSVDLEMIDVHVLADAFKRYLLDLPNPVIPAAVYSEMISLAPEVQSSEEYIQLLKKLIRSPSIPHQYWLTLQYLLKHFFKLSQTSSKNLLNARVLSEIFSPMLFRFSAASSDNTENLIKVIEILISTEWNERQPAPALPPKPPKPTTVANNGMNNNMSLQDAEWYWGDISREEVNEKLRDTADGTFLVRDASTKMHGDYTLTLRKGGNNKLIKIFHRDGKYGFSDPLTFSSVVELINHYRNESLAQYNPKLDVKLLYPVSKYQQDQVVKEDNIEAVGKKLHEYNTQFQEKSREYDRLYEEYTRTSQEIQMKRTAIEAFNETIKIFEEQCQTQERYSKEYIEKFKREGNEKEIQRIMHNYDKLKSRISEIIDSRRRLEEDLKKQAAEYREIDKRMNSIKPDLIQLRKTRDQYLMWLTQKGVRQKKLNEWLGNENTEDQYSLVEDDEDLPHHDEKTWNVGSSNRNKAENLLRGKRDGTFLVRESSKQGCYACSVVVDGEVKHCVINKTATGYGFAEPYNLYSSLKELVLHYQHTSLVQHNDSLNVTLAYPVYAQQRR
PI3K (p120γ) (human), sequence (P48736 whole entry): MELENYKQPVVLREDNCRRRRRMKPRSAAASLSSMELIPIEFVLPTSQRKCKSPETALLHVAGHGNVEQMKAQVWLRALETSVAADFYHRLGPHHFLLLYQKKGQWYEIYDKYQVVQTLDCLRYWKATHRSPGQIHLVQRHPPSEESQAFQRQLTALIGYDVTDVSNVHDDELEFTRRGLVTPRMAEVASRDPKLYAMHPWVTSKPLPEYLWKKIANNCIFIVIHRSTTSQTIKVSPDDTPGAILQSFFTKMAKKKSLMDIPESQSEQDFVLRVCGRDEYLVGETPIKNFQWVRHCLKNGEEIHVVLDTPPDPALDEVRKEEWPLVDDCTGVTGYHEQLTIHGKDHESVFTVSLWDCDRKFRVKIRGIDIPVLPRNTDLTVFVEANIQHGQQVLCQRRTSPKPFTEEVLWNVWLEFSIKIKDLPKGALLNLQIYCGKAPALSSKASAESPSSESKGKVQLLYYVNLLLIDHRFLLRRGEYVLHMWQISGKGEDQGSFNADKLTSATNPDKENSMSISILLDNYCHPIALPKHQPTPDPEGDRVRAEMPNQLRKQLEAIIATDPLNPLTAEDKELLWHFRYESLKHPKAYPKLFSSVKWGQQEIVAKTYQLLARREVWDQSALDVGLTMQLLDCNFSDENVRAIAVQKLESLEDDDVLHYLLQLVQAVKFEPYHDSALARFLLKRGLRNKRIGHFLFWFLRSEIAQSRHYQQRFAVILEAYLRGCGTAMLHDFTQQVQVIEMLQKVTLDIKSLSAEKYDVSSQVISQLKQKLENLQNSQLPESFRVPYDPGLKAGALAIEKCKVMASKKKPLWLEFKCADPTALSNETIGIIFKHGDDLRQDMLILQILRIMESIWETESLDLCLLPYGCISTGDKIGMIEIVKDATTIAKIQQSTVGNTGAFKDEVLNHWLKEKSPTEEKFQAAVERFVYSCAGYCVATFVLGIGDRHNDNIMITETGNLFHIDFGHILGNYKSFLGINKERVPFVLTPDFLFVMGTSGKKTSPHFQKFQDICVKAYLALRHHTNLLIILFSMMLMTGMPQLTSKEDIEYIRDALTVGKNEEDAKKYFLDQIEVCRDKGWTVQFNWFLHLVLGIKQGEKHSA
PI3K p110β/p85α (human), sequence (P42338 whole entry): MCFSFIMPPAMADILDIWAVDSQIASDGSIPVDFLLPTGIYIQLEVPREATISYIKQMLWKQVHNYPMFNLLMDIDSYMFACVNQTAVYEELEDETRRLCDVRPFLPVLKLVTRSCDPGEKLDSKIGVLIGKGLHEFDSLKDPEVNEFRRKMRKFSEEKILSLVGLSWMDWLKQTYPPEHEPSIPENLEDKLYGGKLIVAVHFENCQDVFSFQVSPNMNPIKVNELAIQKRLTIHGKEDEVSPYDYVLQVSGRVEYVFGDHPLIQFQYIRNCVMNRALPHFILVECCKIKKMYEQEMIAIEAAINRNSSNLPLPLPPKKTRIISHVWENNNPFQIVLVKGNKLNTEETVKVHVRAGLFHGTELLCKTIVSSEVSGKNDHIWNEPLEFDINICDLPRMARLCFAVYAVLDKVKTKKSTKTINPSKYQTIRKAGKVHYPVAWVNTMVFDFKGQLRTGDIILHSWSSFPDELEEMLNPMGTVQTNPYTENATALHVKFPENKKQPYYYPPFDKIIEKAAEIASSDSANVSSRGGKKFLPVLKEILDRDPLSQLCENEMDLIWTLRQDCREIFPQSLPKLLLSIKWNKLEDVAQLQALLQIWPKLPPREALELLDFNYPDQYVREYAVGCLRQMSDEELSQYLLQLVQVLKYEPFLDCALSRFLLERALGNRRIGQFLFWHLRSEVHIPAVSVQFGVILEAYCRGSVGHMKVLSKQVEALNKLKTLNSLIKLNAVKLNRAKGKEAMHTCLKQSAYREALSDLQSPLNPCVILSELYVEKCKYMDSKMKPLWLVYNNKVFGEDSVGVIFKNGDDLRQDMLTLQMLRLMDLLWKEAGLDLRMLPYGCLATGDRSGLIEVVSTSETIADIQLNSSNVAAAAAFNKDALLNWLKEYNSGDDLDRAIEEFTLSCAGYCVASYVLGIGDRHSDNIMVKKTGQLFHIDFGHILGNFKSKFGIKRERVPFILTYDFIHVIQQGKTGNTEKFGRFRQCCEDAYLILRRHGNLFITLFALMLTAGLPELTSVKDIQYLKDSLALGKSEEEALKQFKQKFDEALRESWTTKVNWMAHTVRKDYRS
PI3K p110β/p85α (human), sequence (P27986 whole entry partner): as the sequence (P27986 whole entry partner) above
PI3K p110δ/p85α (human), sequence (O00329 whole entry): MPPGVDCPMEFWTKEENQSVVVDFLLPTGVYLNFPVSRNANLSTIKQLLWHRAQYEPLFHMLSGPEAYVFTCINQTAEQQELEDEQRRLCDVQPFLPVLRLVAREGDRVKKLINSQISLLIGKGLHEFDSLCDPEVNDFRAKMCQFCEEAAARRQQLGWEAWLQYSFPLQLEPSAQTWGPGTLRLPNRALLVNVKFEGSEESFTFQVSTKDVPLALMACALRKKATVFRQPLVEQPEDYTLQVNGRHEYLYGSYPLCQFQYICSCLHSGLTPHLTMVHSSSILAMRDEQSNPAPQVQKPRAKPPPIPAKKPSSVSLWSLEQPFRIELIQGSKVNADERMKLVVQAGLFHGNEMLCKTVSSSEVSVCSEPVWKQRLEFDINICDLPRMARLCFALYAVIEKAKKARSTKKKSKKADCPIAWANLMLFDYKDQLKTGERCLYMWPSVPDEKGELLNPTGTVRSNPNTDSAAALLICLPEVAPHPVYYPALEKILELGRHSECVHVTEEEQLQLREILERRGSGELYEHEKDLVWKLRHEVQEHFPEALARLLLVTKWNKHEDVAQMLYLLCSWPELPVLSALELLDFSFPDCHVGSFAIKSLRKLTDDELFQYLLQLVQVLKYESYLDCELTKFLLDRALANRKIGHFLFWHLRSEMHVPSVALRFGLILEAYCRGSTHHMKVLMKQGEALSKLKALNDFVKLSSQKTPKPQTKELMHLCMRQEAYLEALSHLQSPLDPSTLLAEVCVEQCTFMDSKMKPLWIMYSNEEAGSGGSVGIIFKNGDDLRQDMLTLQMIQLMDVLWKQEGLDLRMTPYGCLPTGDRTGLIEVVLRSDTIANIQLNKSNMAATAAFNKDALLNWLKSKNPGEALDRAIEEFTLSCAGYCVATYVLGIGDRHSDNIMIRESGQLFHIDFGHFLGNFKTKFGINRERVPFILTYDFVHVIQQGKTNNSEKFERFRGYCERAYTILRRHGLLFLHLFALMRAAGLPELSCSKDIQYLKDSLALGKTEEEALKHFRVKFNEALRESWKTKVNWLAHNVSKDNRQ
PI3K p110δ/p85α (human), sequence (P27986 whole entry partner): as the sequence (P27986 whole entry partner) above

Row | SMILES | IC50 [1] [µM] | IC50 ([1]; 10 μM ATP, substrate p53) [µM] | IC50 [2] [µM] | IC50 [3] [µM] | IC50 [4] [µM] | IC50 [5] [µM] | IC50 [6] [µM] | IC50 [7] [µM] | ratio IC50 (ATM) : IC50 (mTOR), selectivity with respect to mTOR ([3]; as printed:) | fold selectivity for ATM over PI3Kbeta (IC50 PI3Kbeta / IC50 ATM) ([5]; IC50 (ATM) at least 2000 times higher compared with IC50 (PI3Kbeta)) | ratio IC50 (ATM) vs PI3Kdelta, selectivity with respect to PI3Kdelta ([6]; as printed:) | ratio IC50 (ATM) vs PI3Kgamma, selectivity with respect to PI3Kgamma ([7]; as printed:)
1 | COc1cc2ncc3c(c2cc1-c1cnn(C)c1)n(-c1cn(C)cn1)c(=O)n3C [compound 59, 7-Methoxy-3-methyl-1-(1-methyl-1H-imidazol-4-yl)-8-(1-methyl-1H-pyrazol-4-yl)-1,3-dihydroimidazo[4,5-c] quinolin-2-one] | < 0.01 | < 0.01 | 1 to 2 | > 30 | > 30 | > 30 | > 30 | > 30 |  |  |  | 
2 | COc1cc2ncc3c(c2cc1-c1cnn(C)c1)n(-c1c[nH]nc1C)c(=O)n3C [Compound Example 43, 7-Methoxy-3-methyl-1-(3-methyl-1H-pyrazol-4-yl)-8-(1-methyl-1H-pyrazol-4-yl)-1,3-dihydroimidazo[4,5-c]-quinolin-2-one] | < 0.001 | < 0.001 | 0.2 to 1 | > 30 | > 30 | > 30 | > 30 | > 30 |  |  |  | 
3 | CCn1cc(-c2cc3c(cc2OC)ncc2c3n(-c3c(C)cncc3F)c(=O)n2C)cn1 [Compound Example 38, 8-(1-Ethyl-1H-pyrazol-4-yl)-1-(3-fluoro-5-methylpyridin-4-yl)-7-methoxy-3-methyl-1,3-dihydroimidazo[4,5-c] quinolin-2-one] | < 0.001 | < 0.001 | 0.2 to 1 | > 30 | > 30 | > 30 | > 30 | > 30 |  |  |  | 
4 | COc1cc2ncc3c(c2cc1-c1cnn(C)c1)n(-c1ncc(F)cc1F)c(=O)n3C [Compound Example 1, 1-(3,5-Difluoropyridin-2-yl)-7-methoxy-3-methyl-8-(l-methyl-1H-pyrazol-4-yl)-1,3-dihydroimidazo[4,5-c] quinolin-2-one] | < 0.01 | < 0.01 | < 0.2 | > 30 | > 30 | > 30 | > 30 | > 30 |  |  |  | 
5 | COc1cc2ncc3c(c2cc1-c1cnn(C)c1)n(-c1ccncc1C#N)c(=O)n3C [Compound Example 46, 4-[7-Methoxy-3-methyl-8-(1-methyl-1H-pyrazol-4-yl)-2-oxo-2,3-dihydroimidazo-[4,5-c]quinolin-1-yl]-nicotinonitrile] | < 0.05 | < 0.05 | 0.2 to 1 | > 30 | > 30 | > 30 | > 30 | > 30 |  |  |  | 
6 | COc1cc2ncc3c(c2cc1-c1cnn(C)c1)n(-c1cncnc1)c(=O)n3C [Compound Example 57, 7-Methoxy-3-methyl-8-(1-methyl-1H-pyrazol-4-yl)-1-pyrimidin-5-yl-1,3-dihydro-imidazo[4,5-c]quinolin-2-one] | < 0.05 | < 0.05 | 0.2 to 1 | > 30 | > 30 | > 30 | > 30 | > 30 |  |  |  | 
7 | COc1cc2ncc3c(c2cc1-c1cn[nH]c1)n(-c1csc(C)n1)c(=O)n3C [Compound Example 30, 7-Methoxy-3-methyl-1-(2-methylthiazol-4-yl)-8-(1H-pyrazol-4-yl)-1,3-dihydro-imidazo[4,5-c]quinolin-2-one] | < 0.01 | < 0.01 | < 0.2 | > 30 | > 30 | > 30 | > 30 | > 30 |  |  |  | 
8 | CCc1cncc(F)c1-n1c(=O)n(C)c2cnc3cc(OC)c(-c4cnn(C)c4)cc3c21 [Compound Example 12, 1-(3-Ethyl-5-fluoropyridin-4-yl)-7-methoxy-3-methyl-8-(1-methyl-1H-pyrazol-4-yl)-1,3-dihydroimidazo[4,5-c]-quinolin-2-one] | < 0.001 | < 0.001 | < 0.2 | > 30 | > 30 | > 30 | > 30 | > 30 |  |  |  | 
9 | COc1cc2ncc3c(c2cc1-c1cnn(C)c1)n(-c1ccncc1Cl)c(=O)n3C [compound 60, 1-(3-Chloropyridin-4-yl)-7-methoxy-3-methyl-8-(1-methyl-1H-pyrazol-4-yl)-1,3-dihydroimidazo[4,5-c] quinolin-2-one] | < 0.01 | < 0.01 | 1 to 2 | > 30 | > 30 | > 30 | > 30 | > 30 |  |  |  | 
10 | COc1cc2ncc3c(c2cc1-c1cn[nH]c1)n(-c1c(C)cncc1F)c(=O)n3C [Compound Example 8, 1-(3-Fluoro-5-methylpyridin-4-yl)-7-methoxy-3-methyl-8-(1H-pyrazol-4-yl)-1,3-dihydroimidazo[4,5-c] quinolin-2-one] | < 0.001 | < 0.001 | < 0.2 | > 5 | > 30 | > 30 | > 30 | > 30 |  |  |  | 
11 | [2H]C([2H])([2H])Oc1cncc(F)c1-n1c(=O)n(C)c2cnc3cc(OC)c(-c4cnn(C)c4)cc3c21 [compound 145, 1-[3-Fluoro-5-(trideuterio-methoxy)-4-pyridyl]-7-methoxy-3-methyl-8-(1-methylpyrazol-4-yl)imidazo-[4,5-c]quinolin-2-one] |  | < 0.001 | 0.2 to 1 |  |  |  |  |  | at least 2000 times | at least 2000 times | at least 2000 times | at least 2000 times
12 | COc1cc2ncc3c(c2cc1-c1cn(C)nc1C)n(-c1c(F)cncc1OC)c(=O)n3C [Compound Example 4, 8-(1,3-Dimethyl-1H-pyrazol-4-yl)-1-(3-fluoro-5-methoxy-pyridin-4-yl)-7-methoxy-3-methyl-1,3-dihydroimidazo-[4,5-c]quinolin-2-one] |  |  | < 0.2 | > 30 | > 5 | > 30 | > 10 | > 30 |  |  |  | 

— patent publication US10457677B2 (priority 2015, dated 2019)
